Measured values from patent US7893048B2, “2-azetidinone derivatives as cholesterol absorption inhibitors for the treatment of hyperlipidaemic conditions” (AstraZeneca AB, priority 2005, dated 2011).

Assays:
[1] = Absorption in a Caco-2 cells model; format: in vitro ADME; conditions: human
Procedure: Absorption of the compounds of formula (I) was tested in a Caco-2 cells model (Gastroenterology 1989, 96, 736): […]

[2] = tested on: 14C-cholesterol absorption; assay: In vivo testing of cholesterol absorption inhibitors (A); conditions: Mus musculus, po; 0.2 μmol/kg by gavage, procedure A, C57BL/6 female mice
Procedure: In Vivo Testing of Cholesterol Absorption Inhibitors (A)
C57BL/6 female mice were maintained on regular chow diet and housed in individual cages to collect faeces. Mice were fasted for 3 hours and then gavaged with vehicle or compound. Half an hour later the mice were gavaged with radiolabelled cholesterol. Six hours after the ^14C-cholesterol gavage blood samples were taken via the tail and plasma prepared to determine how much cholesterol were absorbed. 24 hours after the gavage of ^14C-cholesterol the mice were bled and plasma were prepared for analysis. Faeces were collected for 24 hours to assess absorption efficiency.

O=C(COc1ccc([C@@H]2[C@@H](SCC(O)c3ccc4c(c3)CCO4)C(=O)N2c2ccc(F)cc2)cc1)NCC(=O)N[C@H](CC1CCCCC1)C(=O)O (stereo partly drawn) [Example 1, N-({4-[(2R,3R)-3-{[2-(2,3-dihydro-1-benzofuran-5-yl)-2-hydroxyethyl]thio}-1-(4-fluorophenyl)-4-oxoazetidin-2-yl]phenoxy}acetyl)glycyl-3-cyclohexyl-D-alanine]
Papp [1]: 0.05 ×10⁻⁶ cm/s

NCCCC[C@@H](NC(=O)CNC(=O)COc1ccc([C@@H]2[C@@H](SCC(O)c3ccc4c(c3)CCO4)C(=O)N2c2ccc(F)cc2)cc1)C(=O)O (stereo partly drawn) [Example 3, N-({4-[(2R,3R)-3-{[2-(2,3-dihydro-1-benzofuran-5-yl)-2-hydroxyethyl]thio}-1-(4-fluorophenyl)-4-oxoazetidin-2-yl]phenoxy}acetyl)glycyl-D-lysine]
inhibition at 0.2 µmol/kg [2]: 59%

CC(C)(C)[C@@H](NC(=O)CNC(=O)COc1ccc([C@@H]2[C@@H](SCC(O)c3ccc4c(c3)CCO4)C(=O)N2c2ccc(F)cc2)cc1)C(=O)O (stereo partly drawn) [Example 4, N-({4-[(2R,3R)-3-{[2-(2,3-dihydro-1-benzofuran-5-yl)-2-hydroxyethyl]thio}-1-(4-fluorophenyl)-4-oxoazetidin-2-yl]phenoxy}acetyl)glycyl-3-methyl-D-valine]
inhibition at 0.2 µmol/kg [2]: 53%
